Data on eight molecules can be found in ChEMBL document CHEMBL1201862, “PubChem BioAssay data set” (2004).

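These data come from cells grown in 96-well plates and exposed to compound for 48 hours at five concentrations. The concentration for 50% growth inhibition is given as GI50.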 Calls of active or inactive are those of the source. Rule as the data show it: active = GI50 up to about 1.1 µM and inactive = higher. A value given as a limit tells only on which side of the number the result lay.

Holding throughout (test): inhibition of tumour cell growth, NCI panel, 48 h
Experiment [1] relates to NCI-H522.
The subject of experiment [2] is A498.
The test system of experiment [3] is UO-31.
Experiment [4] has as its system SR.
Experiment [5] concerns U-251.
Experiment [6] relates to Malme-3M.
For experiment [7], the system named is SN12C.
The subject of experiment [8] is A549.
The test system of experiment [9] is NCI-H460.
In experiment [10] the test system is SK-MEL-2.
Experiment [11] concerns SF-539.
Experiment [12] has as its system RPMI-8226.
Experiment [13] deals with HL-60.
Experiment [14] has as its system COLO 205.
For experiment [15], the system named is SNB-75.
Experiment [16] relates to UACC-62.
The test system of experiment [17] is HT-29.
Experiment [18] relates to HCC 2998.
Experiment [19] relates to SK-MEL-5.

Take `O=C(COc1ccccc1)NS(=O)(=O)c1ccccc1`: the GI50 in [1], in experiment [2], in experiment [3], in experiment [4], in [5] and in experiment [6] was > 100 µM (inactive) in each case. The GI50 in [7], in [8], in [9], in experiment [10], in experiment [11] and in [12] was > 100 µM (inactive) in each case. Moreover, the GI50 in experiment [13], in experiment [14], in [15], in experiment [16], in experiment [17] and in experiment [18] was > 100 µM (inactive) each time.

As for `CC(=O)NC1=C(C)C(=O)c2c(nc3n2CCC3OC(=O)CCl)C1=O` (stereo unspecified), the GI50 in experiment [1] was 3.05 µM (inactive); in experiment [2], 12.6 µM (inactive); in [3], 18 µM (inactive); in experiment [4] it was 2.68 µM (inactive); in [5], 3.3 µM (inactive); in [6] it was 3.66 µM (inactive). Also, the GI50 in [7] was 11.7 µM (inactive); in [8], 12.9 µM (inactive); in [9] it was 20.1 µM (inactive); in experiment [10], 3 µM (inactive); in experiment [11] it was 2.73 µM (inactive); in [12], 2.65 µM (inactive). Moreover, the GI50 in experiment [13] was 2.51 µM (inactive); in experiment [14], 17.5 µM (inactive); in experiment [15], 16.3 µM (inactive); in experiment [19], 12.7 µM (inactive); in [16], 2.81 µM (inactive); in [17], 15.6 µM (inactive). The GI50 in [18] is 12.9 µM (inactive).

For the molecule `COC(=O)C12OCC34C(CC5C(C)C6=CC(=O)OC6=CC5(C)C3C(O)C1O)OC(=O)C(O)C24` (stereo unspecified), the GI50 in experiment [1] is 0.533 µM (active); in experiment [2], 0.544 µM (active); in experiment [3], 16.1 µM (inactive); in experiment [4], < 0.01 µM (active); in experiment [5] it was 0.233 µM (active); in experiment [6], 0.159 µM (active). For the same molecule, the GI50 in experiment [7] is 1.48 µM (inactive); in [8] it was 1.1 µM (active); in [9], 0.204 µM (active); in [10], 0.446 µM (active); in [11], 0.103 µM (active); in experiment [12], 0.0809 µM (active). The GI50 is 0.314 µM (active) in [13]; 6.43 µM (inactive) in experiment [14]; 0.399 µM (active) in experiment [15]; 0.0794 µM (active) in experiment [19]; 0.319 µM (active) in experiment [16]; 0.217 µM (active) in [17]. Moreover, the GI50 in [18] is 0.156 µM (active).

As for `Cc1ccc(S(=O)(=O)N/N=C/c2oc(-c3ccccc3Cl)c(-c3ccccc3Cl)c2[N+](=O)[O-])cc1`, the GI50 in experiment [1] was 6.07 µM (inactive); in experiment [2], 20.8 µM (inactive); in [3], 17.8 µM (inactive); in [4], 7.64 µM (inactive); in experiment [6], 24 µM (inactive); in [7] it was 14.8 µM (inactive). Moreover, the GI50 in experiment [8] was 24.2 µM (inactive); in [9] it was 13.2 µM (inactive); in experiment [10], 25 µM (inactive); in experiment [11] it was 22.4 µM (inactive); in experiment [12], 3.73 µM (inactive); in [13], 8.02 µM (inactive). Moreover, the GI50 was 28.1 µM (inactive) in experiment [14]; 19.5 µM (inactive) in experiment [19]; 17.8 µM (inactive) in experiment [16]; 31.2 µM (inactive) in [17]; 21 µM (inactive) in experiment [18].

`Nc1c(S(=O)(=O)c2ccccc2)c2nc3ccccc3nc2n2c1nc1ccccc12`: the GI50 is 36.5 µM (inactive) in experiment [1]; > 100 µM (inactive) in experiment [2]; > 100 µM (inactive) in experiment [3]; > 71.6 µM (inactive) in experiment [4]; 24.7 µM (inactive) in experiment [5]; 19.5 µM (inactive) in experiment [6]. For the same molecule, the GI50 was > 48.1 µM (inactive) in experiment [7]; > 51.5 µM (inactive) in [8]; 34.3 µM (inactive) in experiment [9]; > 55.3 µM (inactive) in experiment [10]; 11.1 µM (inactive) in [11]; > 100 µM (inactive) in [12]. The GI50 in experiment [13] was > 100 µM (inactive); in [14] it was > 100 µM (inactive); in experiment [15], 7.83 µM (inactive); in [19], 32.4 µM (inactive); in [16], > 62.8 µM (inactive); in experiment [17] it was > 84.1 µM (inactive). Also, the GI50 in experiment [18] is > 78.5 µM (inactive).

As to `CC1CC(C)CC(C)C(O)/C(C#N)=C/C=C/CC(C2CCCC2C(=O)O)OC(=O)CC(O)C(C)C1` (stereo unspecified), the GI50 is < 0.01 µM (active) in experiment [1]; 0.0105 µM (active) in experiment [2]; 0.012 µM (active) in experiment [3]; < 0.0116 µM (active) in experiment [4]; 0.0115 µM (active) in [5]; 0.0286 µM (active) in [6]. For the same molecule, the GI50 in experiment [7] is 0.029 µM (active); in experiment [8], 0.053 µM (active); in experiment [9], 0.0284 µM (active); in experiment [10], < 0.01 µM (active); in [11] it was < 0.01 µM (active); in experiment [12], < 0.0305 µM (active). In addition, the GI50 is 0.0137 µM (active) in experiment [13]; 0.0225 µM (active) in experiment [14]; 0.0175 µM (active) in [15]; 0.0101 µM (active) in experiment [16]; 0.0151 µM (active) in [18].

For the molecule `COC(=O)c1cccn1C(=O)n1cccc1`, the GI50 in experiment [1], in experiment [2], in experiment [3], in [4], in [5] and in experiment [6] was > 100 µM (inactive) throughout. Moreover, the GI50 in experiment [7], in experiment [8], in experiment [9], in experiment [10], in experiment [11] and in [13] was > 100 µM (inactive) each time. Further, the GI50 in [14] was > 100 µM (inactive); in [15] it was 62.1 µM (inactive); in experiment [19], > 100 µM (inactive); in experiment [16] it was > 100 µM (inactive); in experiment [17] it was > 100 µM (inactive); in experiment [18], > 100 µM (inactive).

Consider `CC([C@H]1CCC2C3CCC4CC5(CC[C@]4(C)C3CC[C@@]21C)c1ccccc1C(=O)N5C)N(C)C` (stereo partly specified), for which the GI50 in experiment [1] is 46.9 µM (inactive); in experiment [2], 23.8 µM (inactive); in [3] it was 13 µM (inactive); in [4], 18.1 µM (inactive); in experiment [5], 40.4 µM (inactive); in [6] it was 21.2 µM (inactive). Moreover, the GI50 in experiment [7] was 31.6 µM (inactive); in experiment [8], 78.5 µM (inactive); in experiment [9] it was 21.4 µM (inactive); in [10] it was 19.7 µM (inactive); in experiment [11], 17.9 µM (inactive); in [12], 20.7 µM (inactive). The GI50 is 17.5 µM (inactive) in experiment [13]; 33 µM (inactive) in experiment [14]; 3.45 µM (inactive) in [15]; 17.9 µM (inactive) in experiment [19]; 24.5 µM (inactive) in experiment [16]; 6.18 µM (inactive) in experiment [17]. Also, the GI50 in experiment [18] was > 100 µM (inactive).
